According to ChEMBL document CHEMBL3856243, “Structure-Activity Relationships and Kinetic Studies of Peptidic Antagonists of CBX Chromodomains” (J Med Chem, 2016):
Activity calls are given as the source filed them. No cut-off for these calls is given here. Numbered stars: 1 amine (or outer) side, 2 acyl side, 3 side chain; on linkers, the order of the positions; unused ones are H or OH. Square brackets hold non-standard residues; d marks the D form. Peptide text beside a SMILES is read from it. * marks the point of attachment. X17 = CC(=O)N(CCCC[C@H](N[*:1])C(=O)[*:2])C1CC2CCC1C2; X5 = O=C([C@H](CCCCNC1C2CC3CC(C2)CC1C3)N[*:1])[*:2]; X3 = CN(C)C(NCCCC[C@H](N[*:1])C(=O)[*:2])=[N+](C)C; X15 = O=C([C@H](CCCCNC1CN2CCC1CC2)N[*:1])[*:2]; X14 = CCCN(CCCC[C@H](N[*:1])C(=O)[*:2])C(C)C; X8 = O=C([C@H](CCCCNC1CC2CCC1C2)N[*:1])[*:2]; Phe(4-CH2NH2) = NCc1ccc(C[C@H](N)C(=O)O)cc1; X19 = CN(CCCC[C@H](N[*:1])C(=O)[*:2])C1CNC1; Acetyl(2-naphthyl) = O=C(Cc1ccc2ccccc2c1)*; Lys(Et,iPr) = CCN(CCCC[C@H](N)C(=O)O)C(C)C; Benzoyl(4-tBu) = CC(C)(C)c1ccc(C(=O)*)cc1; Lys(Et2) = CCN(CC)CCCC[C@H](N)C(=O)O; Benzoyl(4-OMe) = COc1ccc(C(=O)*)cc1; Benzoyl(4-Me) = Cc1ccc(C(=O)*)cc1; X18 = O=C(Cc1c[nH]c2ccccc12)*; X2 = Cc1cccc(C(=O)*)c1; Boc = CC(C)(C)OC(=O)*; X1 = Cc1ccccc1C(=O)*; Bz = O=C(c1ccccc1)*

Legend:
[1] = target: T1, E3 SUMO-protein ligase CBX4 (Homo sapiens, UniProt O00257); assay: Antagonist activity at recombinant human N-terminal His-tagged CBX4 chromodomain (8 to 65 residues) expressed in Escherichia coli Rosetta BL21(DE3)pLysS using biotin-labeled UNC4195 measured after 30 mins by AlphaScreen assay
T1 sequence (O00257 whole entry): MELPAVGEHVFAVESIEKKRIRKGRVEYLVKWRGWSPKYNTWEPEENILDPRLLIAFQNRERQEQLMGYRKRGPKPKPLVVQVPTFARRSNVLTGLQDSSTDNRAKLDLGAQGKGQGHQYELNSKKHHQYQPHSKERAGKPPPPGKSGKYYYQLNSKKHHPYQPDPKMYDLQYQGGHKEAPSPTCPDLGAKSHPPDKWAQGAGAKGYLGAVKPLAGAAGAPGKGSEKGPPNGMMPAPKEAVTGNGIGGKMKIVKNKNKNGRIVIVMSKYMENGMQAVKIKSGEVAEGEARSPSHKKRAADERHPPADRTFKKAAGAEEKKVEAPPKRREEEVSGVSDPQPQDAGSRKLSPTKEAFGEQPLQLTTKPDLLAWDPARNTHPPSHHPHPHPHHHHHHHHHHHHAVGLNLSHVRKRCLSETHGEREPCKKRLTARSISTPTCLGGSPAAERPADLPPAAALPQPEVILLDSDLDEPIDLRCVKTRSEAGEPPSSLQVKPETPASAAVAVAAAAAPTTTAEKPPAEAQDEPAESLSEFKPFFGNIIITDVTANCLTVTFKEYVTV

[2] = target: T2, Chromobox protein homolog 7 (Homo sapiens, UniProt O95931); assay: Antagonist activity at recombinant human C-terminal His-tagged CBX7 chromodomain (8 to 62 residues) expressed in Escherichia coli Rosetta BL21(DE3)pLysS using biotin-labeled UNC4195 measured after 30 mins by AlphaScreen assay
T2 sequence (O95931 whole entry): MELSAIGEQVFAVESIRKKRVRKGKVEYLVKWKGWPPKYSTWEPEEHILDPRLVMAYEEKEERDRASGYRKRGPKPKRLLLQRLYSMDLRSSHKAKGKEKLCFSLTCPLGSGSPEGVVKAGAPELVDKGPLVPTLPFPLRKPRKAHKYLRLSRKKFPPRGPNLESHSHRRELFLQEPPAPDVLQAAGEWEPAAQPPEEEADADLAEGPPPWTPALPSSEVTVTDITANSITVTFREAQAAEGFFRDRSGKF

[3] = target: T3, Chromobox protein homolog 8 (Homo sapiens, UniProt Q9HC52); assay: Antagonist activity at recombinant human N-terminal His-tagged CBX8 chromodomain (8 to 61 residues) expressed in Escherichia coli Rosetta BL21(DE3)pLysS using biotin-labeled UNC4195 measured after 30 mins by AlphaScreen assay
T3 sequence (Q9HC52 whole entry): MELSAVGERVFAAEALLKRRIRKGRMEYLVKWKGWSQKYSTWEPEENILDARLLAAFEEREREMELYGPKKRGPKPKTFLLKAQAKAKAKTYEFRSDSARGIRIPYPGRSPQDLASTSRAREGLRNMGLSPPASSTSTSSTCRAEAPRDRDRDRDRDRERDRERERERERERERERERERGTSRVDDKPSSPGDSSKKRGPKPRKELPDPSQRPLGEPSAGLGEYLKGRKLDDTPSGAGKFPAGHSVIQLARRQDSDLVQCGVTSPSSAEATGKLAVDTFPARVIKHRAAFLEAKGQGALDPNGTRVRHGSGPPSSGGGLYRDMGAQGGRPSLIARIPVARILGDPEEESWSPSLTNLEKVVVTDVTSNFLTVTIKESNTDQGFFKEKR

[4] = target: Chromobox protein homolog 5 (Homo sapiens, UniProt P45973); assay: Antagonist activity at recombinant human N-terminal His-tagged CBX5 chromodomain (18 to 75 residues) expressed in Escherichia coli Rosetta BL21(DE3)pLysS using ARTKQTARK(Me3)STGGKAPRKQL-K(Biotin)-NH2 measured after 30 mins by AlphaScreen assay
Sequence of Chromobox protein homolog 5 (P45973 whole entry, the tested form may be a part): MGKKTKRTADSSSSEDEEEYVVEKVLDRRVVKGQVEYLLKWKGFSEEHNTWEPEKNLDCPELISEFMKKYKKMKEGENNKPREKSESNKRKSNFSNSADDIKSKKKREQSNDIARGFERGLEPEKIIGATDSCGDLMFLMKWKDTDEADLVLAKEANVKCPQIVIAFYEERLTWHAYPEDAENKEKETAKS

[5] = target: T4, Chromodomain Y-like protein 2 (Homo sapiens, UniProt Q8N8U2); assay: Antagonist activity at recombinant human C-terminal His-tagged CDYL2 chromodomain (1 to 75 residues) expressed in Escherichia coli Rosetta BL21(DE3)pLysS using biotin-labeled UNC4195 measured after 30 mins by AlphaScreen assay
T4 sequence (Q8N8U2 whole entry): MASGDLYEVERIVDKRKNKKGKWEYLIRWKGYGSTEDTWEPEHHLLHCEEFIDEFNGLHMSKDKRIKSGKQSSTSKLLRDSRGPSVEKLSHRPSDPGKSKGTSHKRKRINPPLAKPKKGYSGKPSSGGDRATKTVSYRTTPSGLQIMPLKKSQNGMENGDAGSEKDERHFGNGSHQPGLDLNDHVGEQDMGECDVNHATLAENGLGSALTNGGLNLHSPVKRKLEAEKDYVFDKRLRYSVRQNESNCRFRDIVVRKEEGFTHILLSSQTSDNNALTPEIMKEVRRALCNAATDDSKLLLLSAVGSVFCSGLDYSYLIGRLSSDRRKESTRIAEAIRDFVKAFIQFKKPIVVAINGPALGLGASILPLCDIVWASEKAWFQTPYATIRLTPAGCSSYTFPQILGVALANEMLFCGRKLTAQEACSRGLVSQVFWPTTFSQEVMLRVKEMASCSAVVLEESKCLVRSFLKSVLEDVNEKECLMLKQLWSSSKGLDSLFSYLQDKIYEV

[6] = target: T5, Chromobox protein homolog 7 (Homo sapiens) (UniProt O95931); assay: Binding affinity to recombinant human C-terminal His-tagged CBX7 chromodomain (8 to 62 residues) expressed in Escherichia coli Rosetta BL21(DE3)pLysS by SPR method
T5 sequence (whole entry): T2 sequence (O95931 whole entry)

Row | SMILES | IC50 [1] [µM] | IC50 [2] [µM] | IC50 [3] [µM] | IC50 [4] [µM] | IC50 [5] [µM] | Activity [6]
1 | CCN(CC)CCCC[C@H](NC(=O)[C@H](CC(C)C)NC(=O)[C@H](C)NC(=O)[C@H](Cc1ccccc1)NC(=O)CNC(=O)c1ccccc1)C(=O)N[C@@H](CO)C(=O)OC (Bz-GFAL[Lys(Et2)]S-OMe) | 46 | – | – | – | – | –
2 | COC(=O)[C@H](CO)NC(=O)[C@H](CCCCNC(N(C)C)=[N+](C)C)NC(=O)[C@H](CC(C)C)NC(=O)[C@H](C)NC(=O)[C@H](Cc1ccccc1)NC(=O)CNC(=O)c1ccccc1 (Bz-GFAL[X3]S-OMe) | > 60 | > 60 | > 60 | > 60 | – | –
3 | COC(=O)[C@H](CO)NC(=O)[C@H](CCCCNC1C2CC3CC(C2)CC1C3)NC(=O)[C@H](CC(C)C)NC(=O)[C@H](C)NC(=O)[C@H](Cc1ccccc1)NC(=O)CNC(=O)c1ccccc1 (stereo partly specified) (Bz-GFAL[X5]S-OMe) | > 60 | > 60 | > 60 | > 60 | 14 | –
4 | COC(=O)[C@H](CO)NC(=O)[C@H](CCCCNC1CC2CCC1C2)NC(=O)[C@H](CC(C)C)NC(=O)[C@H](C)NC(=O)[C@H](Cc1ccccc1)NC(=O)CNC(=O)c1ccccc1 (stereo partly specified) (Bz-GFAL[X8]S-OMe) | > 60 | 51 | > 60 | > 60 | 5 | –
5 | COC(=O)[C@H](CO)NC(=O)[C@H](CCCCNC1CN2CCC1CC2)NC(=O)[C@H](CC(C)C)NC(=O)[C@H](C)NC(=O)[C@H](Cc1ccccc1)NC(=O)CNC(=O)c1ccccc1 (stereo partly specified) (Bz-GFAL[X15]S-OMe) | > 60 | > 60 | > 60 | > 60 | 24 | –
6 | COC(=O)[C@H](CO)NC(=O)[C@H](CCCCN(C(C)=O)C1CC2CCC1C2)NC(=O)[C@H](CC(C)C)NC(=O)[C@H](C)NC(=O)[C@H](Cc1ccccc1)NC(=O)CNC(=O)c1ccccc1 (stereo partly specified) (Bz-GFAL[X17]S-OMe) | > 60 | > 60 | > 60 | > 60 | 38 | –
7 | COC(=O)[C@H](CO)NC(=O)[C@H](CCCCN(C)C1CNC1)NC(=O)[C@H](CC(C)C)NC(=O)[C@H](C)NC(=O)[C@H](Cc1ccccc1)NC(=O)CNC(=O)c1ccccc1 (Bz-GFAL[X19]S-OMe) | > 60 | > 60 | > 60 | > 60 | 8.6 | –
8 | CCN(CC)CCCC[C@H](NC(=O)[C@H](CC(C)C)NC(=O)[C@H](C)NC(=O)[C@H](Cc1ccccc1)NC(=O)c1ccccc1C)C(=O)N[C@@H](CO)C(=O)OC (X1-FAL[Lys(Et2)]S-OMe) | – | – | – | – | – | Active
9 | CCN(CC)CCCC[C@H](NC(=O)[C@H](CC(C)C)NC(=O)[C@H](C)NC(=O)[C@H](Cc1ccccc1)NC(=O)c1cccc(C)c1)C(=O)N[C@@H](CO)C(=O)OC (X2-FAL[Lys(Et2)]S-OMe) | – | – | – | – | – | Active
10 | CCN(CC)CCCC[C@H](NC(=O)[C@H](CC(C)C)NC(=O)[C@H](C)NC(=O)[C@H](Cc1ccccc1)NC(=O)Cc1c[nH]c2ccccc12)C(=O)N[C@@H](CO)C(=O)OC (X18-FAL[Lys(Et2)]S-OMe) | – | 1.7 | 15 | > 60 | 0.11 | –
11 | CCN(CC)CCCC[C@H](NC(=O)[C@H](CC(C)C)NC(=O)[C@H](C)NC(=O)[C@H](Cc1ccccc1)NC(=O)Cc1ccc2ccccc2c1)C(=O)N[C@@H](CO)C(=O)OC ({Acetyl(2-naphthyl)}-FAL[Lys(Et2)]S-OMe) | 5.2 | 1.1 | 24 | > 60 | 0.084 | –
12 | CCN(CC)CCCC[C@H](NC(=O)[C@H](CC(C)C)NC(=O)[C@H](C)NC(=O)[C@H](Cc1ccccc1)NC(=O)c1ccc(C)cc1)C(=O)N[C@@H](CO)C(=O)OC ({Benzoyl(4-Me)}-FAL[Lys(Et2)]S-OMe) | – | – | – | – | – | Active
13 | CCN(CC)CCCC[C@H](NC(=O)[C@H](CC(C)C)NC(=O)[C@H](C)NC(=O)[C@H](Cc1ccccc1)NC(=O)c1ccc(OC)cc1)C(=O)N[C@@H](CO)C(=O)OC ({Benzoyl(4-OMe)}-FAL[Lys(Et2)]S-OMe) | 0.75 | 0.25 | 3.3 | 12 | 0.26 | –
14 | CCN(CCCC[C@H](NC(=O)[C@H](CC(C)C)NC(=O)[C@H](C)NC(=O)[C@H](Cc1ccccc1)NC(=O)c1ccc(C(C)(C)C)cc1)C(=O)N[C@@H](CO)C(=O)OC)C(C)C ({Benzoyl(4-tBu)}-FAL[Lys(Et,iPr)]S-OMe) | – | – | 1 | > 60 | – | –
15 | CCCN(CCCC[C@H](NC(=O)[C@H](CC(C)C)NC(=O)[C@H](C)NC(=O)[C@H](Cc1ccccc1)NC(=O)c1ccc(C(C)(C)C)cc1)C(=O)N[C@@H](CO)C(=O)OC)C(C)C ({Benzoyl(4-tBu)}-FAL[X14]S-OMe) | 0.062 | 0.032 | – | > 60 | 0.11 | –
16 | CCN(CC)CCCC[C@H](NC(=O)[C@H](CC(C)C)NC(=O)[C@H](C)NC(=O)[C@H](Cc1ccc(CNC(=O)OC(C)(C)C)cc1)NC(=O)c1ccc(C(C)(C)C)cc1)C(=O)N[C@@H](CO)C(=O)OC ({Benzoyl(4-tBu)}-[Phe(4-CH2NH2)](Boc)AL[Lys(Et2)]S-OMe) | – | 0.056 | 1.7 | 44 | 0.16 | –
17 | CCN(CC)CCCC[C@H](NC(=O)[C@H](CC(C)C)NC(=O)[C@H](C)NC(=O)[C@H](Cc1ccc(CN)cc1)NC(=O)c1ccc(C(C)(C)C)cc1)C(=O)N[C@@H](CO)C(=O)OC ({Benzoyl(4-tBu)}-[Phe(4-CH2NH2)]AL[Lys(Et2)]S-OMe) | – | 0.063 | 2.4 | 53 | 0.075 | –
